According to paper PMC9598407, “Identification of Staphylococcus aureus Penicillin Binding Protein 4 (PBP4) Inhibitors” (Antibiotics, 2022):

Tests used:
[1] = tested on: Pseudomonas aeruginosa; experiment: Ceftobiprole susceptibility with compound, Pseudomonas aeruginosa; type: cell-based; conditions: not shown
Experimental: (§1) As a means to further evaluate whether the compound affects PBP4 activity a series of assays were performed.

[2] = tested on: S. aureus USA300; experiment: µSiM-CA membrane transmigration; type: cell-based, Staphylococcus aureus
Experimental: Thus, we tested 9314848 for its ability to eliminate S. aureus migration through µSiM-CA membrane pores. […] Conversely, the USA300∆pbp4 strain was unable to efficiently transverse the membrane, verifying that PBP4 is required for S. aureus membrane transmigration, as previously reported. To evaluate whether 9314848 is capable of eliminating PBP4-associated S. aureus µSiM-CA membrane migration, 1 × 10^7 CFU wild type cells were incubated with 0, 3.125, 6.25, 12.5, or 25 µM of the compound for 2 h then applied to the top chamber of the device. Following incubation, cells in the top and bottom chambers were enumerated.
The effect of PBP4 inhibitors on S. aureus migration through 500 nm nanoporous membranes modeling the orifices of osteocyte lacuno-canalicular networks was investigated using a µSiM-CA device, as previously described. Briefly, µSIM-CA systems were fabricated by SiMPore Inc. (West Henrietta, NY, USA) to include a top and a bottom chamber that were separated by 400 nm thick silicon nitride membrane containing an array of 500 nm pores, allowing for quantification of bacteria that migrate from the apical (top) well to the basal (bottom) well. To measure bacterial migration through the device membrane, S. aureus strains USA300 or USA300∆pbp4 were grown overnight at 37 °C with aeration, diluted (1:100) in fresh MH media, and then grown to mid-exponential phase (OD600nm = 0.2) in the presence or absence of putative PBP4 inhibitor for approximately 2 h at 37 °C shaking with aeration. A total of 100 µL of cell mixture (~1 × 10^7 CFU) was transferred into the top reservoir of the device and incubated for 6 h at 37 °C. A total of 10 µL of media from the apical and basal reservoirs was collected, serial diluted in 0.8% NaCl, and plated on MH agar plates for bacterial enumeration.

[3] = tested on: S. aureus USA300; experiment: Triton X-100 susceptibility growth study; type: cell-based, Staphylococcus aureus; conditions: wild type USA300, 12.5 µM compound
Source text: Cheung and colleagues have shown that S. aureus tolerance to Triton X-100 is mediated by PBP4 [25]. More directly, wild type cells are tolerant of 0.1% of the detergent, while pbp4 mutant cells are not. Accordingly, as a first test of whether 9314848 may affect PBP4’s cellular function, we evaluated whether compound treated wild type cells phenocopy the growth defect of pbp4 mutant cells in the presence of 0.1% triton X-100 (Figure 3B).
The effect of putative PBP4 inhibitors on bacterial growth in media supplemented with Triton X-100 was measured, as previously described. […] Cell suspensions were incubated at 37 °C with aeration and cell density (OD600nm) was recorded hourly for a total of 7–8 h.

[4] = tested on: S. aureus strain CRB; experiment: Fractional inhibitory concentration checkerboard, ceftobiprole + putative PBP4 inhibitor, strain CRB; type: cell-based, Staphylococcus aureus
Experimental: (§2) Fractional inhibitory testing was performed in checkerboard format to determine whether putative PBP4 inhibitors potentiated the antimicrobial effects of β-lactams toward S. aureus strains USA300 and CRB, as previously described. To do so, in triplicate 10^5 CFU of each strain (10 µL) was added to individual wells of a microtiter plate containing 90 µL MH media. […] Plates were incubated at 37 °C for 16–20 h and the lowest concentration of each test agent that inhibited bacterial growth alone or in combination was determined by the naked eye. The fractional inhibitory concentration (FIC) index was calculated using the formula: FIC of A (MIC of drug A in combination/MIC of drug A alone) + FIC B ([…]/MIC of drug B alone). A synergistic interaction was defined as a FICI value of less than 0.5, an additive interaction was defined as a FICI value between 0.5 and 1.0, an indifferent interaction was defined as a FICI value between 1.0 and 4.0, and an antagonistic interaction was defined as a FICI value of more than 4.0 [46].

[5] = tested on: S. aureus strain USA300; experiment: microbe, parasite or virus in culture; type: cell-based; conditions: Staphylococcus aureus, USA300, read-out: Ceftobiprole resistance (MIC) in the presence of compound
Experimental: as §2

[6] = tested on: Enterococcus faecalis; experiment: Ceftobiprole susceptibility with compound, Enterococcus faecalis; type: cell-based; conditions: not shown
Experimental: as §1

## CC1CCN(C(=O)c2cccc(NC(=O)Nc3ccc(Cl)cc3)c2)CC1 [Compound 9314848]
[1]
  Effect on ceftobiprole susceptibility: no effect
[2]; 0-25 µM compound
  Viability of cells within the top/treatment chamber: did not affect the viability
[2]; concentrations greater than 6.25 µM (2.5 µg/mL)
  Effect on S. aureus membrane transmigration: completely inhibited
[2]; ≤3.125 µM
  Effect on S. aureus membrane transmigration: no effect
[3]; 0.1% Triton X-100
  Growth in the presence of Triton X-100: exhibited growth defect
[3]; no Triton X-100
  Growth in the absence of detergent: did not display a growth defect
[4]; Staphylococcus aureus, read-out: CRB Alone Cmpd (putative PBP4 inhibitor MIC alone)
  MIC: 400 µM
[4]; strain CRB, ceftobiprole combined with the indicated putative PBP4 inhibitor
  CRB Combination BPR (ceftobiprole MIC in combination): 8 µg/mL
[4]; strain CRB, compound combined with ceftobiprole
  CRB Combination Cmpd (compound concentration in combination): 25 µM
[4]; strain CRB, in combination with the indicated putative PBP4 inhibitor
  CRB Fold-decrease in ceftobiprole resistance in combination: 16 fold
[5]
  MIC: 0.25 µg/mL
[6]
  Effect on ceftobiprole susceptibility: no effect
